The values that follow are results of earlier work, collected in patent US20100221330A1, “BUOYANT FORMULATIONS OF BETAINE” (priority 2003, published 2010).

The conditions of the data set: human subjects, betaine supplementation.

Take `C[N+](C)(C)CC(=O)O` [betaine]: the “Effect on blood pressure” value was “reduces the blood pressure, especially the diastolic pressure”.
